Laboratory results taken from US9586978B2, “Anti-viral compounds” (AbbVie Inc., priority 2009, dated 2017).
Where two headings read alike, the source gives them in different places.

Legend:
HCV genotype 1a replicon = HCV genotype 1a replicon assay; type: cell-based, Hepatitis C virus
Description: (§1) [drawing 14] employs a biphenyl linker between the imidazole moieties. See WO2008021927(BMS). The EC50 values of BMS-790052 against different HCV genotypes were shown by Nettles et al., “BMS-790052 is a First-in-class Potent Hepatitis C Virus (HCV) NS5A Inhibitor for Patients with Chronic HCV Infection: Results from a Proof-of-concept Study”, 59th Annual Meeting of the American Association for the Study of Liver Diseases (Oct. 31-Nov. 1, 2008, San Francisco, Calif.; www.natap.org/2008/AASLD/AASLD_06.htm). […] See also Gao et al., NATURE 465:96-100 (2010). The compounds in Table 1 use different linkers between the imidazole moieties. Table 1 depicts the EC50 values of these compounds when tested using respective replicon assays in the presence of 5% (v/v) fetal bovine serum (FBS).
(§2) Table 2 compares compounds containing unsubstituted benzimidazole to those containing halo-substituted benzimidazole. Anti-viral activities were assessed using wild-type replicons (e.g., 1b WT or 1a WT) as well as replicons containing specific NS5A mutations (e.g., 1b L28T, 1b Y93H, 1a L31V, 1a Y93C, 1a M28V, or 1a Q30E) in the absence of FBS.
(§3) Table 3 compares compounds with different linkers between the benzimidazole moieties. Anti-viral activities were determined using 1a and 1b replicon assays. “HP” refers to human plasma. […] As compared to the phenyl linker

HCV genotype 1b replicon = HCV genotype 1b replicon assay; type: cell-based, Hepatitis C virus
Description: as §1, §2, §3

[1] = system: HCV 1b replicon containing NS5A mutation L28T; assay: HCV 1b L28T replicon assay; type: cell-based; details: Hepatitis C virus, read-out: EC50 (nM) 1b L28T
Protocol: as §2

[2] = system: HCV 1b replicon containing NS5A mutation Y93H; assay: HCV 1b Y93H replicon assay; type: cell-based, Hepatitis C virus; details: Hepatitis C virus, read-out: EC50 (nM) 1b Y93H
Protocol: as §2

[3] = system: HCV 1a replicon containing NS5A mutation L31V; assay: HCV 1a L31V replicon assay; type: cell-based, Hepatitis C virus; details: Hepatitis C virus, read-out: EC50 (nM) 1a L31V
Protocol: as §2

[4] = system: HCV 1a replicon containing NS5A mutation Y93C; assay: HCV 1a Y93C replicon assay; type: cell-based; details: Hepatitis C virus, read-out: EC50 (nM) 1a Y93C
Protocol: as §2

[5] = system: HCV 1a replicon containing NS5A mutation M28V; assay: HCV 1a M28V replicon assay; type: cell-based; details: Hepatitis C virus, read-out: EC50 (nM) 1a M28V
Protocol: as §2

[6] = system: HCV 1a replicon containing NS5A mutation Q30E; assay: HCV 1a Q30E replicon assay; type: cell-based; details: Hepatitis C virus, read-out: EC50 (nM) 1a Q30E
Protocol: as §2

HCV genotype 2a replicon = HCV genotype 2a replicon assay; type: cell-based, Hepatitis C virus
Description: as §1

HCV genotype 2b replicon = HCV genotype 2b replicon assay; type: cell-based, Hepatitis C virus
Description: as §1

HCV genotype 3a replicon = HCV genotype 3a replicon assay; type: cell-based, Hepatitis C virus
Description: as §1

HCV genotype 4a replicon = HCV genotype 4a replicon assay; type: cell-based, Hepatitis C virus
Description: as §1

[7] = system: HCV 2a, 2b, 3a and 4a replicon; assay: HCV 2a, 2b, 3a and 4a replicon assays in the absence of human plasma; type: cell-based; details: 3a and 4a replicons
Protocol: The inhibitory effects of the compounds of the invention on HCV replication can be determined by measuring activity of the luciferase reporter gene. For example, replicon-containing cells can be seeded into 96 well plates at a density of 5000 cells per well in 100 μl DMEM containing 5% FBS. The following day compounds can be diluted in dimethyl sulfoxide (DMSO) to generate a 200× stock in a series of eight half-log dilutions. The dilution series can then be further diluted 100-fold in the medium containing 5% FBS. Medium with the inhibitor is added to the overnight cell culture plates already containing 100 μl of DMEM with 5% FBS. In assays measuring inhibitory activity in the presence of human plasma, the medium from the overnight cell culture plates can be replaced with DMEM containing 40% human plasma and 5% FBS. The cells can be incubated for three days in the tissue culture incubators after which time 30 μl of Passive Lysis buffer (Promega) can be added to each well, and then the plates are incubated for 15 minutes with rocking to lyse the cells. Luciferin solution (100 μl, Promega) can be added to each well, and luciferase activity can be measured with a Victor II luminometer (Perkin-Elmer). The percent inhibition of HCV RNA replication can be calculated for each compound concentration and the EC50 value can be calculated using nonlinear regression curve fitting to the 4-parameter logistic equation and GraphPad Prism 4 software.

HCV genotype 5a replicon = HCV genotype 5a replicon assay; type: cell-based, Hepatitis C virus; details: replicon assay in the presence of 5% (v/v) FBS
Description: as §1

HCV genotype 6a replicon = HCV genotype 6a replicon assay; type: cell-based, Hepatitis C virus
Description: as §1

[8] = Hepatitis C virus, wild-type replicon, in the absence of FBS, read-out: EC50 (nM) 1a WT
[9] = Hepatitis C virus, wild-type replicon, in the absence of FBS, read-out: EC50 (nM) 1b WT
[10] = Hepatitis C virus, 40% human plasma, Table 5, read-out: EC50 (nM, in the presence of 40% HP) 1a
[11] = Hepatitis C virus, 40% human plasma, Table 5, read-out: EC50 (nM, in the presence of 40% HP) 1b
[12] = Hepatitis C virus, absence of human plasma, Table 5, read-out: EC50 (nM, in the absence of HP) 2a
[13] = Hepatitis C virus, absence of human plasma, Table 5, read-out: EC50 (nM, in the absence of HP) 2b
[14] = Hepatitis C virus, read-out: EC50 (nM, in the absence of HP) 3a, absence of human plasma, Table 5
[15] = Hepatitis C virus, absence of human plasma, Table 5, read-out: EC50 (nM, in the absence of HP) 4a
[16] = replicon assay in the presence of 5% (v/v) FBS, read-out: EC50 (nM) 1a
[17] = replicon assay in the presence of 5% (v/v) FBS, read-out: EC50 (nM) 1b
[18] = replicon assay in the presence of 5% (v/v) FBS, read-out: EC50 (nM) 2a
[19] = replicon assay in the presence of 5% (v/v) FBS, read-out: EC50 (nM) 2b
[20] = read-out: EC50 (nM) 3a, replicon assay in the presence of 5% (v/v) FBS
[21] = replicon assay in the presence of 5% (v/v) FBS, read-out: EC50 (nM) 4a
[22] = read-out: EC50 (nM) 6a, replicon assay in the presence of 5% (v/v) FBS

Row | SMILES | EC50 (HCV genotype 1a replicon; [8]) [nM] | EC50 (HCV genotype 1b replicon; [9]) [nM] | EC50 [1] [nM] | EC50 [2] [nM] | EC50 [3] [nM] | EC50 [4] [nM] | EC50 [5] [nM] | EC50 [6] [nM] | further results
1 | COC(=O)N[C@H](C(=O)N1CCC[C@H]1c1nc2c(F)cc(-c3ccc(-c4cc(F)c5nc([C@@H]6CCCN6C(=O)[C@@H](NC(=O)OC)C(C)C)[nH]c5c4)cc3)cc2[nH]1)C(C)C | 0.26 | 0.004 | 4.3 | 2.4 | 5.5 | 34 | 1.8 | 59 | –
2 | COC(=O)N[C@H](C(=O)N1CCC[C@H]1c1nc2cc([C@H]3CC[C@H](c4ccc5[nH]c([C@@H]6CCCN6C(=O)[C@@H](NC(=O)OC)C(C)C)nc5c4)N3c3ccc(N4CCC(c5ccccc5)CC4)cc3)ccc2[nH]1)C(C)C [Example 4.25] | – | – | – | – | – | – | – | – | EC50 (HCV genotype 1a replicon; [10]): 1.5 nM; EC50 (HCV genotype 1b replicon; [11]): 1.5 nM; EC50 (HCV genotype 2a replicon; [12]): 0.5 nM; EC50 (HCV genotype 2b replicon; [13]): 0.5 nM; EC50 (HCV genotype 3a replicon; [14]): 0.5 nM; EC50 (HCV genotype 4a replicon; [15]): 0.2 nM; EC50 ([7]; Hepatitis C virus, absence of human plasma): 0.2 to 0.5 nM
3 | COC(=O)N[C@H](C(=O)N1CCC[C@H]1c1ncc(-c2ccc(C3CCC(c4cnc([C@@H]5CCCN5C(=O)[C@@H](NC(=O)OC)C(C)C)[nH]4)CC3)cc2)[nH]1)C(C)C (single isomer, unassigned) [drawing 17] | – | – | – | – | – | – | – | – | EC50 (HCV genotype 1a replicon; [16]): 0.71 nM; EC50 (HCV genotype 1b replicon; [17]): 0.06 nM; EC50 (HCV genotype 2a replicon; [18]): 9 nM; EC50 (HCV genotype 2b replicon; [19]): 0.4 nM; EC50 (HCV genotype 3a replicon; [20]): 2.3 nM; EC50 (HCV genotype 4a replicon; [21]): 0.04 nM; EC50 (HCV genotype 5a replicon): 0.08 nM; EC50 (HCV genotype 6a replicon; [22]): 0.5 nM
4 | COC(=O)N[C@H](C(=O)N1CCC[C@H]1c1ncc(C2=CCC(c3ccc(-c4cnc([C@@H]5CCCN5C(=O)[C@@H](NC(=O)OC)C(C)C)[nH]4)cc3)CC2)[nH]1)C(C)C (stereo partly drawn) | – | – | – | – | – | – | – | – | EC50 (HCV genotype 1a replicon; Hepatitis C virus, replicon assay in the presence of 5% (v/v) FBS, read-out: EC50 (nM) 1a): 0.12 nM; EC50 (HCV genotype 1b replicon; Hepatitis C virus, replicon assay in the presence of 5% (v/v) FBS, read-out: EC50 (nM) 1b): 0.03 nM; EC50 (HCV genotype 2a replicon; Hepatitis C virus, replicon assay in the presence of 5% (v/v) FBS, read-out: EC50 (nM) 2a): 16 nM; EC50 (HCV genotype 2b replicon; Hepatitis C virus, replicon assay in the presence of 5% (v/v) FBS, read-out: EC50 (nM) 2b): 0.09 nM; EC50 (HCV genotype 3a replicon; Hepatitis C virus, read-out: EC50 (nM) 3a, replicon assay in the presence of 5% (v/v) FBS): 1.5 nM; EC50 (HCV genotype 4a replicon; Hepatitis C virus, replicon assay in the presence of 5% (v/v) FBS, read-out: EC50 (nM) 4a): 0.03 nM; EC50 (HCV genotype 5a replicon; Hepatitis C virus): 0.05 nM; EC50 (HCV genotype 6a replicon; Hepatitis C virus, read-out: EC50 (nM) 6a, replicon assay in the presence of 5% (v/v) FBS): 0.5 nM
5 | COC(=O)NC(C(=O)N1CCCC1c1nc2cc(-c3ccc(-c4ccc5[nH]c([C@@H]6CCCN6C(=O)[C@@H](NC(=O)OC)C(C)C)nc5c4)cc3)ccc2[nH]1)C(C)C (stereo partly drawn) | 0.09 | 0.01 | 2.7 | 0.9 | 36 | 40 | 1 | 40 | –
6 | COC(=O)N[C@H](C(=O)N1CCC[C@H]1c1ncc(-c2ccc(C3CCC(c4cnc([C@@H]5CCCN5C(=O)[C@@H](NC(=O)OC)C(C)C)[nH]4)CC3)cc2)[nH]1)C(C)C (single isomer, unassigned) [drawing 18] | – | – | – | – | – | – | – | – | EC50 (HCV genotype 1a replicon; [16]): > 10 nM; EC50 (HCV genotype 1b replicon; [17]): 8.5 nM; EC50 (HCV genotype 2a replicon; [18]): > 100 nM; EC50 (HCV genotype 2b replicon; [19]): > 10 nM; EC50 (HCV genotype 3a replicon; [20]): > 10 nM; EC50 (HCV genotype 4a replicon; [21]): 4 nM; EC50 (HCV genotype 5a replicon): > 10 nM; EC50 (HCV genotype 6a replicon; [22]): > 10 nM
7 | COC(=O)N[C@H](C(=O)N1CCC[C@H]1c1nc2cc(F)c(-c3ccc(-c4cc5[nH]c([C@@H]6CCCN6C(=O)[C@@H](NC(=O)OC)C(C)C)nc5cc4F)cc3)cc2[nH]1)C(C)C | 0.14 | 0.003 | 1.8 | 0.5 | 109 | 26 | 2.4 | 119 | –
8 | COC(=O)N[C@H](C(=O)N1CCC[C@H]1c1nc2ccc(-c3ccc(-c4ccc5nc([C@@H]6CCCN6C(=O)[C@@H](NC(=O)OC)C(C)C)[nH]c5c4F)cc3)c(F)c2[nH]1)C(C)C | 0.1 | 0.007 | > 10 | 3.6 | 80 | 141 | 5.8 | 52 | –
9 | COC(=O)N[C@H](C(=O)N1CCC[C@H]1c1nc2cc(F)c(-c3ccc(-c4c(F)cc5nc([C@@H]6CCCN6C(=O)[C@@H](NC(=O)OC)C(C)C)[nH]c5c4F)cc3)c(F)c2[nH]1)C(C)C | 0.28 | 0.005 | > 10 | 5.7 | 33 | 103 | 11.6 | 306 | –
10 | COC(=O)N[C@H](C(=O)N1CCC[C@H]1c1nc2cc([C@H]3CC[C@H](c4ccc5[nH]c([C@@H]6CCCN6C(=O)[C@@H](NC(=O)OC)C(C)C)nc5c4)N3c3ccc(N4CCC(c5ccccc5)CC4)c(F)c3)ccc2[nH]1)C(C)C [Example 3.20, methyl{(2S)-1-[(2S)-2-{5-[(2R,5R)-1-[3-fluoro-4-(4-phenylpiperidin-1-yl)phenyl]-5-{2-[(2S)-1-{(2S)-2-[(methoxycarbonyl)amino]-3-methylbutanoyl}pyrrolidin-2-yl]-1H-benzimidazol-5-yl}pyrrolidin-2-yl]-1H-benzimidazol-2-yl}pyrrolidin-1-yl]-3-methyl-1-oxobutan-2-yl}carbamate] | – | – | – | – | – | – | – | – | EC50 (HCV genotype 1a replicon; [10]): 0.5 nM; EC50 (HCV genotype 1b replicon; [11]): 0.6 nM; EC50 (HCV genotype 2a replicon; [12]): ≤ 0.05 nM; EC50 (HCV genotype 2b replicon; [13]): ≤ 0.05 nM; EC50 (HCV genotype 3a replicon; [14]): ≤ 0.05 nM; EC50 (HCV genotype 4a replicon; [15]): ≤ 0.05 nM; EC50 values, fold less than those of Example 4.25 ([7]; absence of HP, versus Example 4.25): at least 15 fold
